Earlier results, collected in patent US20100029602A1, “LOW-DOSE MOMETASONE FORMULATIONS” (Perrigo Israel Pharmaceuticals Ltd., priority 2007, published 2010).

solubility in ethyl alcohol (ethyl alcohol): moderately soluble
solubility in octanol (octanol): slightly soluble
solubility in water (water): practically insoluble
SMILES: C[C@@H]1C[C@H]2[C@@H]3CCC4=CC(=O)C=C[C@]4(C)[C@@]3(Cl)[C@@H](O)C[C@]2(C)[C@@]1(OC(=O)c1ccco1)C(=O)CCl [Mometasone furoate]
